These results are taken from patent publication US11964956B2, “Cannabinergic compounds and uses thereof” (Northeastern University, priority 2012, dated 2024).

Usually Ki stands for a measure of affinity in units of concentration, obtained from inhibition or displacement. What is called EC50 is the concentration that produces a half-maximal response. For orientation: Emax means the maximal effect, on the per cent scale that the assay sets.

In data set [1] the target is T1, rCB1 (Rattus norvegicus, UniProt P20272). As to the kind of experiment: rCB1 competition-equilibrium binding with [3H]CP-55,940, rat brain membranes. Set-up: Frozen rat brains (CB1 source) are obtained from Pel-Freeze Biologicals; tissue Pel-Freeze Biologicals (Rogers, AK); host or cells: rat brain membranes. As for the experimental part: Frozen rat brains (CB1 source) are obtained from Pel-Freeze Biologicals (Rogers, AK) and stored at −80° C. until use. Membranes are prepared according to the method described by Dodd et al. and used in our laboratory as reported.
T1 sequence (P20272 whole entry): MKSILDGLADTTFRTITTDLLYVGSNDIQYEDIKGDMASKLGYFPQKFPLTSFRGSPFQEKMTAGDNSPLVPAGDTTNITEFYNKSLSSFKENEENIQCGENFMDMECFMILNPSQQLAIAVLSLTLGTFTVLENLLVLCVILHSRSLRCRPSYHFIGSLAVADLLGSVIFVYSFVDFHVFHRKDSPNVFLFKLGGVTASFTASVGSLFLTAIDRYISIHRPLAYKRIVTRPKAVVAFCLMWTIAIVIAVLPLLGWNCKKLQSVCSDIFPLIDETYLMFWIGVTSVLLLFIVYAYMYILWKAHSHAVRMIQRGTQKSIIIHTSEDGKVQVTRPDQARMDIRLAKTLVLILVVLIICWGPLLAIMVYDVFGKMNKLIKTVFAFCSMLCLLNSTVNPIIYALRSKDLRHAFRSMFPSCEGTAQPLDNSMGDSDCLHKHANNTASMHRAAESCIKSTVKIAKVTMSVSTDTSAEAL
(§1) All the cannabinoids discussed in this invention are tested for their ability to bind to CB 1 and CB2 receptors using membranes from rat brain or HEK293 cells expressing either mCB2 or hCB2, respectively via competition-equilibrium binding using [^3H]CP-55,940. Results are analyzed using nonlinear regression to determine ligand IC50 (Prism by GraphPad Software, Inc.), and Ki values are calculated from the IC50. IC50 and Ki values are determined from at least three independent experiments.
(§2) Some disclosed compounds were tested for CB1 and CB2 receptor binding affinity, which can be represented by a Ki value. The Ki value is the affinity constant and describes the affinity of the compound for the receptor. […] A detailed description of the methods used to test binding affinity of compounds is given in US 2007/0135388 and in Papahatjis, et al., J. Med. Chem. (2007) 4048, the content of each of which is hereby incorporated by reference.

Data set [2] deals with T2, mCB2 (Mus musculus, UniProt P47936).
T2 construct: expressed in transfected cells; host or cells: HEK293
T2 sequence (P47936 whole entry): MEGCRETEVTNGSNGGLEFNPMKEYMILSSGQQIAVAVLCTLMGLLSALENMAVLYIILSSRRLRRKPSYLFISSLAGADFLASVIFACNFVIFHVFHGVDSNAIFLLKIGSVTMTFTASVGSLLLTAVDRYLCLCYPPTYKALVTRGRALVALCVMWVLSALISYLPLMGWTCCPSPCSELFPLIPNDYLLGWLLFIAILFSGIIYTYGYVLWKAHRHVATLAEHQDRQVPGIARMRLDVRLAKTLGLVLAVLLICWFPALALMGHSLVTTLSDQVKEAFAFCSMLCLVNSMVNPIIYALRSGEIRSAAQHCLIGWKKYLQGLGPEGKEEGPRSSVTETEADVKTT
In words: mCB2 competition-equilibrium binding with [3H]CP-55,940, HEK293 membranes. As for the experimental part:
(§3) HEK293 cells expressing hCB1 or hCB2 or mCB2 receptor are used for membrane preparations according to Abadji et al. The resulting pellet is resuspended in 10 mM Tris-chloride, pH 7.4, with 5 mM MgCl2 and 2 mM EDTA (TME), rapidly frozen in liquid nitrogen and stored at −80° C. for no longer than two months. Protein content is assayed by using the Bio-Rad protein assay according to the manufacturer's protocol.
as §1, §2

Data set [3] relates to rats. In words: Hypothermia assay (FIG. 3A). The data set is classed as in vivo, rat. To be noted: change in body temperature vs time after injection, compared to AM10843.
Data set [4] concerns the target T3, hCB2 (Homo sapiens, UniProt P34972).
T3 construct: expressed in transfected cells; host or cells: HEK293
As to the kind of experiment: cAMP assay, hCB2. The data set is classed as cell-based. Particulars: for Emax: cAMP assay. As to the method:
(§4) Functional characterization of some of the disclosed compounds was performed by using the cyclic adenosine monophosphate (cAMP) assay. The functional potency of the compound in the cAMP assay is represented by the EC50 value. The lower the EC50 value, the higher the functional potency. A detailed description of the cyclic adenosine monophosphate (cAMP) assay is given in Nikas et al. J. Med. Chem. (2010) 6996, the content of which is incorporated herein by reference. Table 10 lists the EC50 values of certain compounds of Formula (Je) in the cAMP assay.
For orientation: cAMP levels reflect the balance of adenylyl cyclase and phosphodiesterase activity.

For data set [5], the target named is T3, hCB2. As to the kind of experiment: hCB2 competition-equilibrium binding with [3H]CP-55,940, HEK293 membranes. As for the experimental part:
as §3, §1, §2

Data set [6] has as its target T1, rCB1. In words: cAMP assay, rCB1. It counts as cell-based. As for the experimental part: as §4
Data set [7] relates to mice. In words: Analgesia assay, tail flick / tail immersion (FIG. 3B). The data set is classed as in vivo, mouse. Particulars: iso-active doses, compared with nabilone (AM10806) and AM10843. As to the method:
Some of the disclosed compounds were tested in vivo using two well defined rodent assays for cannabinergic activity, the analgesia and the hypothermia assays. The analgesia assay (tail immersion test) determines the ability of a test compound to activate cannabinergic signaling, through modulation of cannabinoid receptors, and thereby reduce nociceptive pain. The hypothermia test determines the ability of a test compound to act as a central CB1 agonist and decrease the body temperature. […] The details of both assays are described below.
Analgesia Assay. C57BL6/J mice (Jackson Laboratories, Bar Harbor Maine) were single housed at least 1 h before start of experiment. Food and water were removed immediately before the first injection.
Route of administration=i.p. Volume=1 mL/100 g body weight.
Tail withdrawal test: 52° C. water bath (use bags). Bag was made of stapled surgery sheets to form a small pocket the size of a mouse. […] The tip of the mouse's tail was dipped into the warm water, with 1 cm submerged.

The conditions of data set [8]: background statement; cited from earlier work.

Where two headings read alike, the source gives them in different places.

T3 sequence (P34972 whole entry): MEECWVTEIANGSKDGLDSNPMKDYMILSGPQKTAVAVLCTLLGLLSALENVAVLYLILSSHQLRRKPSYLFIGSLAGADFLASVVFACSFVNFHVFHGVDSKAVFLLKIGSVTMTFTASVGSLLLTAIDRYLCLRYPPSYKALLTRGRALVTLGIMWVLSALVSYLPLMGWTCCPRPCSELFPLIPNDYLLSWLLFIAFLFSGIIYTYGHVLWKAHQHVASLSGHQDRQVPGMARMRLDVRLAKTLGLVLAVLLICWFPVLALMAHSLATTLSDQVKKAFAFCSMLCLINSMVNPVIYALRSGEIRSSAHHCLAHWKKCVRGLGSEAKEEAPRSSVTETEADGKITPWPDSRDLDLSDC

As to `CC(C)(C(=O)OCCCC#N)c1cc(O)c2c(c1)OC(C)(C)[C@@H]1CCC(=O)C[C@@H]21` [8 AM10811, 3-Cyanopropyl-2-((6aR,10aR)-1-hydroxy-6,6-dimethyl-9-oxo-6a,7,8,9,10,10a-hexahydro-6H-benzo[c]chromen-3-yl)-2-methylpropanoate], the Ki in data set [1] worked out at 0.7 ± 0.03 nM; in data set [2], 1.1 ± 0.4 nM; in data set [5], 6.2 ± 2.7 nM. In data set [3], the “duration of hypothermic effect” value was “shorter acting”. The EC50 in data set [4] worked out at 0.1 ± 0.03 nM; in data set [6], 0.4 ± 0.06 nM. The figures for the Emax in data set [4] and in data set [6] (cAMP assay) were 77% and 87%, respectively.

Turning to `CCCOC(=O)CC(C)(C)c1cc(O)c2c(c1)OC(C)(C)[C@@H]1CCC(=O)C[C@@H]21` [18 AM10819, Propyl-3-((6aR,10aR)-1-hydroxy-6,6-dimethyl-9-oxo-6a,7,8,9,10,10a-hexahydro-6H-benzo[c]chromen-3-yl)-3-methylbutanoate], the Ki came out at 11 ± 1.4 nM in data set [1], 26 ± 3.6 nM in data set [2] and 90 ± 11.3 nM in data set [5]. In addition, the EC50 is 0.2 ± 0.09 nM in data set [4] and 15.9 ± 3.6 nM in data set [6]. Besides, the Emax in data set [4] was found to be 82%; in data set [6] (cAMP assay) it was 90%. Moreover, the “duration of analgesic effect (tail flick)” value in data set [7] is “shorter acting”.

On to `CCCCOC(=O)C(C)(C)c1cc(O)c2c(c1)OC(C)(C)C1CCC(=O)CC21` (stereo not shown) [AM 10843], for which the EC50 stood at 1.1 ± 2.3 nM in data set [4] and 1 ± 0.3 nM in data set [6]. Also, the Emax in data set [4] amounted to 80%; in data set [6] (cAMP assay), 83%.

Turning to `CC(C)(C(=O)OCCCN=[N+]=[N-])c1cc(O)c2c(c1)OC(C)(C)[C@@H]1CCC(=O)C[C@@H]21` [Compound 9, 3-Azidopropyl-2-((6aR,10aR)-1-hydroxy-6,6-dimethyl-9-oxo-6a,7,8,9,10,10a-hexahydro-6H-benzo[c]chromen-3-yl)-2-methylpropanoate], the Ki in data set [1] turned out to be 0.13 nM; in data set [2], 4 nM; in data set [5], 3.1 nM. Moreover, the values for the EC50 in data set [4] and in data set [6] were 2.1 nM and 0.2 nM, respectively. Also, the Emax was determined as 87% in data set [4] and 52% in data set [6] (cAMP assay).

In the case of `CCCCCOC(=O)C(C)(C)c1cc(O)c2c(c1)OC(C)(C)[C@@H]1CCC(=O)C[C@@H]21` [Compound 34c, Pentyl 2-((6aR,10aR)-1-hydroxy-6,6-dimethyl-9-oxo-6a,7,8,9,10,10a-hexahydro-6H-benzo[c]chromen-3-yl)-2-methylpropanoate], the Ki in data set [1] was 0.4 ± 0.01 nM; in data set [2], 6.1 ± 1.1 nM; in data set [5], 11.5 ± 1.6 nM. The EC50 is 8.4 ± 1.8 nM in data set [4] and 8.9 ± 2.3 nM in data set [6]. Also, the Emax came out at 46% in data set [4] and 94% in data set [6] (cAMP assay).

Take `CCC[C@@H](C)OC(=O)C(C)(C)c1cc(O)c2c(c1)OC(C)(C)[C@@H]1CCC(=O)C[C@@H]21` [Compound 34f, (R)-Pentan-2-yl 2-((6aR,10aR)-1-hydroxy-6,6-dimethyl-9-oxo-6a,7,8,9,10,10a-hexahydro-6H-benzo[c]chromen-3-yl)-2-methylpropanoate]: the figures for the Ki in data set [1], in data set [2] and in data set [5] were 4 ± 0.7 nM, 36.4 ± 12.4 nM and 7 ± 2.1 nM, respectively. For the same compound, the EC50 in data set [6] worked out at 94.5 nM. In data set [6] (cAMP assay), the Emax turned out to be 71%.

In the case of `CC(C)(C(=O)OCCCN1CCOCC1)c1cc(O)c2c(c1)OC(C)(C)[C@@H]1CCC(=O)C[C@@H]21` [Compound 34g, 3-Morpholinopropyl 2-((6aR,10aR)-1-hydroxy-6,6-dimethyl-9-oxo-6a,7,8,9,10,10a-hexahydro-6H-benzo[c]chromen-3-yl)-2-methylpropanoate], the Ki in data set [1] (Table 9, Formula (Ie), read-out: rCB1 (Ki)) was found to be 17 ± 3.5 nM; in data set [2] (Table 9, Formula (Ie), read-out: mCB2 (Ki)), 91.7 ± 20.4 nM; in data set [5] (Table 9, Formula (Ie), read-out: hCB2 (Ki)), 18.2 ± 4.1 nM. The compound further returned an Emax in data set [6] (cAMP assay) of 78%. In addition, the EC50 in data set [6] (cAMP assay, read-out: rCB1 EC50) was 4.2 nM.

Turning to `CCCCSC(=O)C(C)(C)c1cc(O)c2c(c1)OC(C)(C)[C@@H]1CCC(=O)C[C@@H]21` [Compound 34h, S-Butyl 2-((6aR,10aR)-1-hydroxy-6,6-dimethyl-9-oxo-6a,7,8,9,10,10a-hexahydro-6H-benzo[c]chromen-3-yl)-2-methylpropanethioate], the Ki in data set [1] was 0.7 ± 0.03 nM; in data set [2], 5 ± 1.4 nM; in data set [5], 16 ± 2.4 nM. The figures for the EC50 in data set [4] and in data set [6] were 83.4 ± 4.7 nM and 0.2 ± 0.04 nM, respectively. The Emax in data set [4] turned out to be 72%; in data set [6] (cAMP assay), 89%.

Consider `CCCCCc1cc(O)c2c(c1)OC(C)(C)[C@@H]1CCC(C)=C[C@@H]21` [Dronabinol], for which the “slow and erratic absorption” value in data set [8] was 2 to 6 h.
